The structures appear in SMILES notation. In brackets after ≈: the same amount, converted by molar mass.

One data set has as its system MDA-MB-231 TNBC cells. The data set is described as follows: RealTime-Glo cell viability assay, MDA-MB-231 cells. The conditions noted are these: for cytotoxicity: 100 nM, alone or in combination; for IC50: Homo sapiens, RealTime-Glo, 24 h, read-out: IC50 (cytotoxicity). It counts as cell-based, human.
The test system of data set [1] is 4T1 tumors. Nature of the data set: 4T1 TNBC model in vivo (primary tumor and lung metastases). Further details: species or system mouse. The conditions noted are these: 4T1 model; for #Surface metastases (lung): 1,25D 0.25 μg/kg, SAHA 80 mg/kg, AM-193 0.2 mg/kg, ZG-126 high 5.0 mg/kg, vehicle 166. On the procedure: As 4T1 cells are aggressively metastatic, we can also assess the antimetastatic activity in the same experiment. All treatments were well tolerated, and, as in the B16-F10 model, none induced weight loss or other signs of stress over the course of the experiment (Figure 7A). Treatments reduced the primary tumor burden to varying degrees.
The antimetastatic activity was determined by counting the number of surface lung metastases of duplicate samples using a stereomicroscope. […] This degree of efficacy is remarkable, as in previous experiments, DK-406 reduced the metastatic burden by ∼2-fold.[30]
(§1) Finally, mice were sacrificed, and lungs of 4T1-bearing mice were removed to evaluate the efficiency of treatments on lung metastases.

Data set [2] has as its system macrophage infiltration into 4T1 tumors. Nature of the data set: Immunofluorescence of macrophages in 4T1 tumors (F4/80, Arg1). It counts as in vivo, mouse. The conditions noted are these: Figure 8B. Here is the method:
Inhibition of PD-L1 and CD80/CD86 is directly achieved through the immune checkpoint blockade of their receptors using anti-CTLA-4 and anti-PD-1 antibodies.[69],[70]
Primary tumor tissues were fixed using 4% paraformaldehyde and subsequently dehydrated in sucrose solutions ranging from 10 to 30% for approximately 24 h each. The tissues were then embedded in base molds (Fisherbrand—#22363553) containing an optimal cutting temperature (OCT) compound (Fisher Healthcare—#4585). The tissue blocks were placed immediately on dry ice until the OCT compound solidified, and then they were stored at −80 °C. Prior to IF staining, sections of 5–10 μm were obtained using a Leica CM3050 S cryostat and SuperFrost Plus slides (Fisherbrand—#1255015). The tumor sections were then incubated with blocking buffer [phosphate-buffered saline containing 2% bovine serum albumin, 0.3% Triton X-100, 1% FBS, and 10% goat serum] for 1 h at RT. To detect macrophages in the TME, the sections were incubated with a pan-macrophage rat monoclonal antibody F4/80 (Abcam—#6640) diluted in blocking buffer overnight at 4 °C. Sixteen hours later, tissues were washed 3 times with 100 mM Tris–HCl and then incubated with a secondary goat antirat antibody (Invitrogen—#A11081) for 1 h at RT. […] Subsequently, 4′,6-diamidino-2-phenylindole (DAPI; Invitrogen—#D3571) was used to counterstain the nuclei for 5 min at RT. Finally, the slides were mounted using Fluoromount-G medium (Invitrogen—#00495802) and coverslips (Fisher Scientific—#12545E) and imaged with a Zeiss LSM 710 confocal microscope with ×20 objective. Quantification was carried out by QuPath software (version 0.3.2). F4/80+ macrophages and F4/80+ Arg1+ M2 macrophages were classified based on their fluorescence signal.

The test system of data set [3] is 4T1 cells. The data set is described as follows: Cytokine and chemokine gene expression in 4T1 cells in vitro. The class given is cell-based, mouse. Particulars: Figure 8A.
Data set [4] relates to hyperacetylation of tubulin, H3K9 and H3K27. The data set is described as follows: Western blot of tubulin and histone H3 hyperacetylation in 4T1 cells. It counts as cell-based, mouse. Particulars: hybrids 10 μM, SAHA 100 nM, 6 h. Here is the method:
The potential for compounds as HDACi’s can be rapidly tested in cells in culture by monitoring the hyperacetylation of histone H3 and tubulin. H3 acetylation is controlled by multiple class I enzymes, and the class IIb enzyme HDAC6 regulates tubulin acetylation.[36]−[39] […] (Figure 4A).
Figure 4 Evidence for HDAC inhibition in 4T1 and 4TO7 TNBC cells. Western blots and quantification of triplicate biological replicates analyzing the effects of 1,25D (100 nM), SAHA (100 nM), and hybrids (10 μM) on hyperacetylation of tubulin (A,D), H3K9 (B,E), and H3K27 (C,F) in 4T1 (A–C) and 4TO7 cells (D–F).
After 6 h treatments, 4T1, 4T07, or B16-F10 cells were solubilized in lysis buffer (20 mM Tris, pH 8, 150 mM NaCl, 1% Triton X-100, 3.5 mM SDS, and 13 mM deoxycholic acid), and proteins were separated on a 4–15% Tris/glycine/SDS gel (Bio-Rad). Then, the proteins were transferred to a nitrocellulose membrane, followed by blocking in 5% skim milk in Tris-buffered saline (TBS, 1×) solution. After blocking, the membranes were incubated overnight at 4 °C with the primary antibodies against acetylated tubulin (Sigma-Aldrich—#T7451), tubulin (Sigma-Aldrich—#T9026), acetyl-histone H3(Lys9) (Merck Millipore—#07-352), acetyl-histone H3 (Lys27) (Abcam—#ab4729), total histone H3 (Cell Signaling Technology (CST)—#3638), and GAPDH (Abcam—#ab8245). Then, the membranes were incubated with antimouse (CST—#7076) or antirabbit (CST—#7074) IgG HRP-linked secondary antibodies at recommended concentrations. Finally, signals were detected using Clarity ECL substrates (Bio-Rad) and a ChemiDoc Imaging System. Changes in protein levels were quantified relative to control using Image Lab software (version 6.0.1) after normalization to GAPDH. Western blot experiments were carried out three times.
Background: Immunoblotting shows a protein as a band on a membrane.

The nature of the next data set: in vivo. The conditions noted are these: BALB/c, mouse, ip.
Data set [5] deals with 4T1 cells. The data set is described as follows: RealTime-Glo cell viability assay, 4T1 cells. Particulars: for IC50: Mus musculus, 4T1, 24 h, read-out: IC50 (cytotoxicity).
A further data set is described as follows: Solubility. The class given is physicochemical.
Data set [6] deals with hyperacetylation of tubulin, H3K9 and H3K27. The data set is described as follows: Western blot of tubulin and histone H3 hyperacetylation in B16-F10 cells. It counts as cell-based, mouse. Particulars: SAHA 100 nM. The text has this: B16-F10 cells are responsive to 1,25D analogues[45] and HDACi[46],[47] and are therefore widely used in preclinical studies of melanoma solid tumor growth and metastases.[48] Although curable when treated early, melanoma is fatal when invasive. The American Cancer Society projected 97,610 new invasive melanoma cases in the US in 2023 and 7990 deaths. Current treatment options include chemotherapy, surgery, immunotherapy, or single agents targeting mutated genes such as B-RAF or C-KIT.[49]
After 6 h treatments, 4T1, 4T07, or B16-F10 cells were solubilized in lysis buffer (20 mM Tris, pH 8, 150 mM NaCl, 1% Triton X-100, 3.5 mM SDS, and 13 mM deoxycholic acid), and proteins were separated on a 4–15% Tris/glycine/SDS gel (Bio-Rad). Then, the proteins were transferred to a nitrocellulose membrane, followed by blocking in 5% skim milk in Tris-buffered saline (TBS, 1×) solution. […] Finally, signals were detected using Clarity ECL substrates (Bio-Rad) and a ChemiDoc Imaging System. Changes in protein levels were quantified relative to control using Image Lab software (version 6.0.1) after normalization to GAPDH. […]
Figure S2. […] Quantification of the analyses of hyperacetylation in B16-F10 cells of tubulin, H3K9 and H3K27. […]

Data set [7] deals with 4T1 tumors. Further details: method as in PMID 1540948. The conditions noted are these: 4T1 model, previous experiments ref 30; cited from earlier work.
The target of the next data set is T1, VDR (Mus musculus, UniProt P48281).
T1 sequence (P48281 1-422): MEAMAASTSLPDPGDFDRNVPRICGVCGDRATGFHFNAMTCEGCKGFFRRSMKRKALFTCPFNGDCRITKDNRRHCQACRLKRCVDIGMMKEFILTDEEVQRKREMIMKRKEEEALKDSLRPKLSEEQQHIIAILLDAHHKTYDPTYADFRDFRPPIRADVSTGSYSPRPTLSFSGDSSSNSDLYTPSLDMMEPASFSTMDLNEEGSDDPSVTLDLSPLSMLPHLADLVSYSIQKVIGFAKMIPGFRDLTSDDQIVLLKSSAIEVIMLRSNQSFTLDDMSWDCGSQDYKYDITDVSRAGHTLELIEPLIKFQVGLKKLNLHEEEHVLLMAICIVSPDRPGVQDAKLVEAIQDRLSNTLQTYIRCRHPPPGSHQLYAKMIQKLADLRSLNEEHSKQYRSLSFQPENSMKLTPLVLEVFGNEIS
The data set is described as follows: Cyp24a1 gene induction (VDR agonism) in 4T1 cells. It counts as cell-based. Further details: endogenous in cells. Particulars: Figure 2A. On the procedure:
We first examined the effect of the modified structures on solubility. […] The bifunctionality of ZG compounds was then analyzed in a battery of assays. VDR agonism was determined by evaluating the induction of the Cyp24a1 gene. Cyp24a1 encodes the enzyme that initiates the catabolic degradation of 1,25D in a negative-feedback loop, and its gene transcription is exquisitely sensitive to the presence of the agonist-bound VDR. Agonism was assessed initially in mouse 4T1 cells and in related 4TO7 TNBC cells (Figure 2A,B). […] Apparent potencies were lower than those of DK-406 and AM-193.
RNA extraction was performed with the FavorPrep tissue total RNA mini kit (FAVORGEN Biotech Corporation FATRK 001) as per manufacturer’s instructions. cDNA was obtained from 1 μg of RNA using 5× All-in-One RT MasterMix (Applied Biological Materials (abm) Inc. G485) and diluted 5 times. qPCR was performed with BrightGreen 2× q-PCR MasterMix (abm MasterMix-LR-XL) on a Roche LightCycler 96 system. Expression of targeted genes was normalized to 18 s.

Another data set has as its system B16-F10 tumors. The data set is described as follows: B16-F10 melanoma model in vivo. Further details: species or system mouse. The conditions noted are these: C57BL/6 mice; ZG-126 5 mg/kg, AM-193 0.2 mg/kg, 1,25D 0.25 μg/kg, SAHA 80 mg/kg, gemcitabine 50 mg/kg. On the procedure: We were then interested in comparing the efficacy of ZG compounds and other hybrids in tumor models in vivo. We focused initially on the B16-F10 melanoma which is syngeneic with C57BL/6 mice. The efficacy of ZG-126 in vivo in this model was tested in two experiments. […] In a second experiment, we compared the antitumor efficacy of hybrids at ∼0.5 MTD doses. […] All treatments were well tolerated, and body weights were unaffected (Figure 6C).
as §1

For the compound `C=C1/C(=C\C=C2/CCC[C@]3(C)[C@@H]([C@H](C)CCCC(C)(C)O)CC[C@@H]23)C[C@@H](O)C[C@@H]1O` [1,25D, 1,25-dihydroxyvitamin D], the cytotoxicity result with MDA-MB-231 TNBC cells was “did not display significant cytotoxicity”. Further, in the data set on 4T1 tumors [1], the “#Surface metastases (lung)” value is 114. For the same compound, the “total macrophage infiltration into 4T1 tumors (F4/80 staining)” value in data set [2] is listed as “significantly reduced”. In the data set with 4T1 cells [3], the “expression of Ccl2, Ccl5, Ccl20, and Cxcl10” value is reported as “inhibited”; the “expression of the gene encoding interleukin-1α” value is “induced”.
As usually defined, the IC50 is the concentration that inhibits the measured activity by half. Regarding `CCC(CC)(c1ccc(OCCCCCC(=O)NO)cc1)c1ccc(OCC(O)C(C)(C)C)c(C)n1` (centres unmarked) [AM-193, reference compound], the IC50 worked out at 500 nM with MDA-MB-231 TNBC cells and 740 nM in the data set with 4T1 cells [5]. Further, in data set [4], the tubulin acetylation result is “highly efficacious inducer of tubulin acetylation”. In the data set on 4T1 tumors [1], the “#Surface metastases (lung)” value is on record as 89. For the same compound, the “effect on primary tumor burden” value in the data set with 4T1 tumors [1] (AM-193 0.2 mg/kg compared with ZG-126 5 mg/kg) was “less efficacious than the high dose of ZG-126”. This compound gave an MTD in the data set “in vivo” of 0.5 mg/kg.
As usually defined, the solubility is the dissolved amount per volume that the medium holds. A low value points to a poorly soluble substance. `CCC(CC)(c1ccc(C(=O)NCCCCCC(=O)NO)cc1)c1ccc(OCC(O)C(C)(C)C)c(C)c1` (centres unmarked) [DK-406, reference compound]: the solubility in “Solubility” turned out to be 4.40 µg/mL (≈ 8.35 µM). Further, the IC50 in the data set on MDA-MB-231 TNBC cells stood at 2430 nM; with 4T1 cells [5], 9080 nM. Also, the “tubulin acetylation and histone hyperacetylation” value in data set [6] is “induced very high levels of tubulin acetylation and histone hyperacetylation”. Also, the “reduction of metastatic burden” value in the data set with 4T1 tumors [7] is ~2 fold. For the same compound, the MTD in “in vivo” stood at 1 mg/kg.
Consider `O=C(CCCCCCC(=O)Nc1ccccc1)NO` [SAHA, reference compound], for which the cytotoxicity entry with MDA-MB-231 TNBC cells is on record as “did not display significant cytotoxicity”; with 4T1 cells [5] (4T1 cells, 100 nM, alone or in combination), “did not display significant cytotoxicity”. Moreover, the “#Surface metastases (lung)” value with 4T1 tumors [1] is 139. Moreover, in [2], the “total macrophage infiltration into 4T1 tumors (F4/80 staining)” value is reported as “not”.
In the data set “Solubility”, `CCC(CC)(c1ccc(C(=O)NCCCCCC(=O)NO)cc1)c1ccc(OCC(O)C(C)(C)C)c(C)n1` (centres unmarked) [ZG-102, 4-(3-(5-(2-Hydroxy-3,3-dimethylbutoxy)-6-methylpyridin-2-yl)pentan-3-yl)-N-(6-(hydroxyamino)-6-oxohexyl)benzamide] had a solubility of 4.45 µg/mL (≈ 8.43 µM). Further, the IC50 with MDA-MB-231 TNBC cells turned out to be 2180 nM; in the data set with 4T1 cells [5] it was 55800 nM. The MTD in the data set “in vivo” was found to be 10 mg/kg. In addition, at VDR, the Cyp24a1 induction result is reported as “did not appear to be a full agonist”.
Taken in the same sequence, the figures for `CCC(CC)(c1ccc(C(=O)NCCCC(=O)NO)cc1)c1ccc(OCC(O)C(C)(C)C)c(C)n1` (centres unmarked) [ZG-132, 4-(3-(5-(2-Hydroxy-3,3-dimethylbutoxy)-6-methylpyridin-2-yl)pentan-3-yl)-N-(4-(hydroxyamino)-4-oxobutyl)benzamide] were 10.71 µg/mL (≈ 21.4 µM), 950 nM, 4550 nM, 10 mg/kg and “did not appear to be a full agonist”.
As for `Nc1ccn([C@@H]2O[C@H](CO)[C@@H](O)C2(F)F)c(=O)n1` [gemcitabine, reference compound], in the data set on B16-F10 tumors, the B16-F10 tumor burden entry is listed as “statistically significant reduction in tumor burden”.

(Values after PMC11249012 (Journal of Medicinal Chemistry, 2024).)
